Experimental data: patent US5446157A, “Boron difluoride compounds useful in photodynamic therapy and production of laser light” (priority 1993, dated 1995)
Structures can show the parent of a compound that is named as a salt.

System: breast tumors
Test: Photodynamic therapy of DMBA-induced breast tumors, intratumor injection (Table VIII)
Type: in vivo, female Sprague Dawley rats
Conditions: for COMPLETE RESPONSE (ANIMALS) / FINAL TOTAL TUMOR NO. / FINAL MEAN TUMOR VOLUME: four weeks
Method: Breast tumors were induced in fifty-day-old female Sprague Dawley rats by the oral feeding of dimethylbenzanthracene (DMBA) in peanut oil. Individual rats were fed 10 mg DMBA per 100 g body weight via gavage tubes. Palpable tumors developed 45 to 92 days after feeding. […] Following tumor development, tumors were measured and injected with PMPDS-BF2 dissolved in saline ([…] was injected into the center of the tumors to a concentration of 20 μg/cm^3 of tumor volume. Twenty-four hours after intratumor injection, the rats were anesthetized using phenobarbital (2 mg/kg i.p.) and the injected tumors were exposed to light from either a quartz lamp (100 or 250 w) or an argon laser (with 488/514 and 628 nm frequencies) for 10-20 minutes. Also included in this experiment were three control groups: (1) saline injected, unirradiated tumors; (2) saline injected, irradiated tumors; (3) PMPDS-BF2 injected, and unirradiated tumors.

CC1=C(S(=O)(=O)O)C(C)=[N+]2C1=C(C)c1c(C)c(S(=O)(=O)O)c(C)n1[B-]2(F)F [PMPDS-BF2, Disodium salt of 4,4-difluoro-1,3,5,7,8-pentamethyl-4-bora-3a,4a-diaza-s-indacene-2,6-disulfonic acid monohydrate]
COMPLETE RESPONSE (ANIMALS) (20 ug/cm^3, no light): 2/10 | FINAL TOTAL TUMOR NO. (20 ug/cm^3, no light, initial 12): 13 | FINAL MEAN TUMOR VOLUME (20 ug/cm^3 intratumor plus light (quartz lamp 100 watt, 20 min), initial 0.3): 0.1 cm^3 | FINAL MEAN TUMOR VOLUME (20 ug/cm^3 intratumor, no light, initial 0.2): 0.7 cm^3 | COMPLETE RESPONSE (ANIMALS) (20 ug/cm^3 plus light): 7/10 | FINAL TOTAL TUMOR NO. (20 ug/cm^3 plus light, initial 14): 3 | tumor necrosis (injected and irradiated): Tumor necrosis was observed | tumor remission (injected and irradiated): 50-100% | necrosis or remission (injected, not irradiated): no necrosis or remission
